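Step 1: Grow cells in 96-well plates. Step 2: Expose to compound for 48 hours at 5 concentrations. Step 3: Interpolate endpoints linearly; if unreached, use highest concentration. GI50 is the concentration that inhibits growth by half.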 Activity calls are given as the source filed them. Cut-off read from the data, not from the text of the source: active = GI50 up to about 1.1 µM and inactive = higher.
Legend:
Assay in all cases: NCI-60 cell line screen, 48 h
SF-268 = test system: SF-268
A549 = test system: A549
NCI/ADR-RES = test system: NCI/ADR-RES
MDA-MB-231 = test system: MDA-MB-231
HOP-92 = test system: HOP-92
SN12C = test system: SN12C
UACC-62 = test system: UACC-62
HCT-15 = test system: HCT-15
OVCAR-3 = test system: OVCAR-3
SW-620 = test system: SW-620
IGROV-1 = test system: IGROV-1
MOLT-4 = test system: MOLT-4
U-251 = test system: U-251
SF-539 = test system: SF-539
HL-60 = test system: HL-60
A498 = test system: A498
CAKI-1 = test system: CAKI-1
MDA-MB-435 = test system: MDA-MB-435
KM12 = test system: KM12
SK-MEL-28 = test system: SK-MEL-28

For CC(C)(C)[Si](C)(C)OCC1OC(n2ccc(N)nc2=O)C(O[Si](C)(C)C(C)(C)C)C1O[Si](C)(C)C(C)(C)C (centres undefined), the GI50 (SF-268) was 2.56 µM (inactive), the GI50 (A549) was 3.44 µM (inactive) and the GI50 (NCI/ADR-RES) was 15.8 µM (inactive). The GI50 (MDA-MB-231) was 10.8 µM (inactive), the GI50 (HOP-92) was 2.17 µM (inactive) and the GI50 (SN12C) was 3.65 µM (inactive). The GI50 (UACC-62) was 1.94 µM (inactive), the GI50 (HCT-15) was 2.23 µM and the GI50 (OVCAR-3) was 1.73 µM (inactive). The GI50 (SW-620) was 1.58 µM (inactive), the GI50 (IGROV-1) was 2.04 µM (inactive) and the GI50 (MOLT-4) was 1.47 µM (inactive).
For NC(=S)N1N=C(c2ccccc2O)CC1c1ccccc1 (centres undefined), the GI50 (SF-268) was 20.8 µM (inactive), the GI50 (U-251) was 16.8 µM (inactive) and the GI50 (A549) was 16 µM (inactive). For the same molecule, the GI50 (SF-539) was 11.8 µM (inactive), the GI50 (HL-60) was 3.69 µM (inactive) and the GI50 (NCI/ADR-RES) was 6.35 µM (inactive). For the same molecule, the GI50 (HOP-92) was 17.1 µM (inactive), the GI50 (A498) was 11.9 µM (inactive) and the GI50 (SN12C) was 13.8 µM (inactive). The GI50 (UACC-62) was 11.6 µM (inactive), the GI50 (CAKI-1) was 27.9 µM (inactive) and the GI50 (HCT-15) was 5.62 µM. For the same molecule, the GI50 (OVCAR-3) was 10.5 µM (inactive), the GI50 (SW-620) was 9.59 µM (inactive) and the GI50 (MDA-MB-435) was 3.02 µM (inactive). The GI50 (IGROV-1) was 11.4 µM (inactive), the GI50 (MOLT-4) was 8.04 µM (inactive) and the GI50 (KM12) was 7.4 µM (inactive). For the same molecule, the GI50 (SK-MEL-28) was 18.5 µM (inactive).
For O=[N+]([O-])c1ccc(-c2ccc(/C=N/n3c(S)nnc3-c3ccc(Cl)cc3)o2)cc1, the GI50 (SF-268) was 24.7 µM (inactive), the GI50 (U-251) was 21.6 µM (inactive) and the GI50 (A549) was 28 µM (inactive). The GI50 (SF-539) was > 40.2 µM (inactive), the GI50 (HL-60) was 51.2 µM (inactive) and the GI50 (HOP-92) was > 42 µM (inactive). For the same molecule, the GI50 (A498) was > 100 µM (inactive), the GI50 (SN12C) was > 49.2 µM (inactive) and the GI50 (UACC-62) was 27.4 µM (inactive). For the same molecule, the GI50 (CAKI-1) was > 39 µM (inactive), the GI50 (HCT-15) was 22.6 µM and the GI50 (OVCAR-3) was 27.9 µM (inactive). For the same molecule, the GI50 (SW-620) was 29 µM (inactive), the GI50 (IGROV-1) was > 81.3 µM (inactive) and the GI50 (MOLT-4) was 15 µM (inactive). For the same molecule, the GI50 (KM12) was 22.8 µM (inactive) and the GI50 (SK-MEL-28) was 16.6 µM (inactive).
C(=N\c1ccc(-c2nc3ccccc3s2)cc1)/c1cccs1 was tested, and the GI50 (SF-268) was 34.8 µM (inactive), the GI50 (U-251) was 49.2 µM (inactive) and the GI50 (A549) was 57.7 µM (inactive). For the same molecule, the GI50 (SF-539) was 59.3 µM (inactive), the GI50 (HL-60) was < 0.01 µM (active) and the GI50 (NCI/ADR-RES) was 43.3 µM (inactive). The GI50 (HOP-92) was 28.4 µM (inactive), the GI50 (A498) was 25.1 µM (inactive) and the GI50 (SN12C) was 40.6 µM (inactive). The GI50 (UACC-62) was 42 µM (inactive), the GI50 (CAKI-1) was 38.5 µM (inactive) and the GI50 (HCT-15) was 40.6 µM. The GI50 (OVCAR-3) was 42.5 µM (inactive), the GI50 (SW-620) was 75.3 µM (inactive) and the GI50 (MDA-MB-435) was 41.9 µM (inactive). The GI50 (IGROV-1) was 49.8 µM (inactive), the GI50 (MOLT-4) was 27 µM (inactive) and the GI50 (KM12) was 40.1 µM (inactive). For the same molecule, the GI50 (SK-MEL-28) was > 100 µM (inactive).
CNC(=O)N(CCC#N)[C@H]1CCCC[C@@H]1N(C(=O)NC)c1ccccc1 was tested, and the GI50 (U-251) was > 100 µM (inactive), the GI50 (A549) was > 100 µM (inactive) and the GI50 (SF-539) was > 100 µM (inactive). For the same molecule, the GI50 (NCI/ADR-RES) was > 100 µM (inactive), the GI50 (MDA-MB-231) was > 100 µM (inactive) and the GI50 (HOP-92) was > 100 µM (inactive). The GI50 (SN12C) was > 100 µM (inactive), the GI50 (UACC-62) was > 100 µM (inactive) and the GI50 (CAKI-1) was > 100 µM (inactive). The GI50 (HCT-15) was greater than 100 µM, the GI50 (OVCAR-3) was > 100 µM (inactive) and the GI50 (SW-620) was > 100 µM (inactive). For the same molecule, the GI50 (MDA-MB-435) was > 100 µM (inactive), the GI50 (IGROV-1) was > 100 µM (inactive) and the GI50 (MOLT-4) was > 100 µM (inactive). For the same molecule, the GI50 (KM12) was > 100 µM (inactive) and the GI50 (SK-MEL-28) was > 100 µM (inactive).
In the case of O=c1[nH]c(=O)n(Cc2ccccc2CO)cc1Sc1ccccc1, the GI50 (SF-268) is reported as 22.8 µM (inactive), the GI50 (U-251) is reported as 34.4 µM (inactive) and the GI50 (A549) is reported as 18.5 µM (inactive). The GI50 (SF-539) was 23.2 µM (inactive), the GI50 (HL-60) was 74.8 µM (inactive) and the GI50 (NCI/ADR-RES) was 26.8 µM (inactive). The GI50 (MDA-MB-231) was 11.8 µM (inactive), the GI50 (HOP-92) was 36.2 µM (inactive) and the GI50 (SN12C) was 34.8 µM (inactive). The GI50 (UACC-62) was 31.3 µM (inactive), the GI50 (CAKI-1) was 13.5 µM (inactive) and the GI50 (HCT-15) was 18.8 µM. For the same molecule, the GI50 (OVCAR-3) was 19.5 µM (inactive), the GI50 (SW-620) was 36.9 µM (inactive) and the GI50 (MDA-MB-435) was 20 µM (inactive). The GI50 (IGROV-1) was 12.3 µM (inactive), the GI50 (MOLT-4) was 54.5 µM (inactive) and the GI50 (KM12) was 23.7 µM (inactive). For the same molecule, the GI50 (SK-MEL-28) was 34.8 µM (inactive).
O=C(Nc1cccc(F)c1)c1cc2ccc(O)cc2o/c1=N\c1ccccc1F was tested, and the GI50 (SF-268) was 2.74 µM (inactive), the GI50 (U-251) was 3.21 µM (inactive) and the GI50 (A549) was 3.38 µM (inactive). The GI50 (SF-539) was 7.43 µM (inactive), the GI50 (HL-60) was 2.45 µM (inactive) and the GI50 (NCI/ADR-RES) was 2.9 µM (inactive). The GI50 (A498) was 16.1 µM (inactive), the GI50 (SN12C) was 5.26 µM (inactive) and the GI50 (UACC-62) was 4.38 µM (inactive). For the same molecule, the GI50 (CAKI-1) was 4.39 µM (inactive), the GI50 (HCT-15) was 2.88 µM and the GI50 (OVCAR-3) was 3.81 µM (inactive). The GI50 (SW-620) was 4.7 µM (inactive), the GI50 (MDA-MB-435) was 3.89 µM (inactive) and the GI50 (IGROV-1) was 2.96 µM (inactive). For the same molecule, the GI50 (MOLT-4) was 2.29 µM (inactive), the GI50 (KM12) was 3.75 µM (inactive) and the GI50 (SK-MEL-28) was 4.05 µM (inactive).
For CC(C)(C)n1c(=O)[nH]c(=O)n1C(C)(C)C, the GI50 (U-251) was > 100 µM (inactive), the GI50 (A549) was > 100 µM (inactive) and the GI50 (SF-539) was > 100 µM (inactive). For the same molecule, the GI50 (HL-60) was > 100 µM (inactive), the GI50 (NCI/ADR-RES) was > 100 µM (inactive) and the GI50 (MDA-MB-231) was > 100 µM (inactive). For the same molecule, the GI50 (HOP-92) was > 100 µM (inactive), the GI50 (A498) was > 100 µM (inactive) and the GI50 (SN12C) was > 100 µM (inactive). For the same molecule, the GI50 (UACC-62) was > 100 µM (inactive), the GI50 (CAKI-1) was > 100 µM (inactive) and the GI50 (HCT-15) was greater than 100 µM. For the same molecule, the GI50 (OVCAR-3) was > 100 µM (inactive), the GI50 (SW-620) was > 100 µM (inactive) and the GI50 (IGROV-1) was > 100 µM (inactive). The GI50 (MOLT-4) was > 100 µM (inactive), the GI50 (KM12) was > 100 µM (inactive) and the GI50 (SK-MEL-28) was > 100 µM (inactive).
